From patent US6451846B1, “Isocoumarin derivatives inhibiting angiogenesis” (Korea Research Institute of Bioscience and Biotechnology, priority 1999, dated 2002)
“Also recorded” adds a separate entry of the source.

How the values were obtained:
[1] = tested on: human umbilical vein endothelial cells (HUVEC); test: Inhibition of tube formation in human endothelial cells on Matrigel; assay type: cell-based; details: for inhibition at 0.5 µg/mL: 0.5 μg/ml; for inhibition at 1 µg/mL: 1.0 μg/ml
From the text: In order to determine the inhibitory effect of the isocoumarin derivatives against the angiogenesis, in vitro, endothelial cells, HUVEC (human umbilical vein endothelial cell) are selected. Under a specific culture condition, endothelial cells are migrated and differentiated into capillary tubes. Similar to the angiogenesis in vivo, the tube formation assay may be a good model to determine the influence of the isocoumarin derivatives on angiogenesis.
Various concentrations of the two isocoumarin derivatives are added to endothelial cells to monitor under a microscope whether the isocoumarin derivatives inhibited the differentiation of endothelial cells into capillary tubes. From this experiment, the two isocoumarin derivatives are found to inhibit the angiogenesis in concentration-dependent manners. […] However, the differentiation of HUVEC into a capillary tube is inhibited by 6,8-dihydroxy-4-acetyl-isocoumarin down to the concentration of as low as 0.2 μg/ml.
To determine the inhibitory effect of the two compounds obtained in Example 1 on the angiogenesis in vitro, human umbilical vein endothelial cells (HUVEC) were used as a model on the basis that they are migrated and differentiated into capillary tubes on Matrigel HUVEC was cultured in a gelatin-coated culture flask with an M199 medium supplemented with 20% FBS, 2 ng/ml bFGF and 100 μg/ml heparin at 37° C. incubator in a humidified atmosphere containing 5% CO2. The cultured HUVEC were treated with trypsin/EDTA to make a single cell suspension, the cells were plated on Matrigel coated 96-well plates with an M199 medium supplemented with 20% FBS, 2 ng/ml bFGF and 100 μg/ml heparin) at a density of 2×10^4 cells/well. The two compounds obtained in Example 1 were independently added at various concentrations into the wells and the plate was incubated for 18-48 hours in a CO2 incubator. The formation of capillary-like tube was monitored under a microscope during the incubation. The cells in the well containing vehicle (DMSO) became to be robuster and longer hollow tube networks as incubation time went on, but the tubes in the wells containing samples were broken and shortened. The inhibitory activity against tube formation was compared with control by measuring the length of the capillary tubes formed.

[2] = tested on: chorioallantoic membranes at 4.5-day old chick embryo; test: Chorioallantoic membrane (CAM) assay, inhibition of angiogenesis in vivo; details: positive eggs/used eggs × 100%
Experimental: Chorioallantoic membrane (CAM) assay was used to measure whether the two isocoumarin derivatives are effective to inhibit angiogenesis in vivo. Fertilized chick eggs were kept in a humidified incubator at 37° C. After 3 days incubation, egg albumin were removed with hypodermic needle to allow CAM and yolk sac to drop away from the shell membrane. On day 3.5, the shell was punched out and removed to be a circular window and the shell membrane was removed. For testing of angiogenesis inhibition, a pieces of thermanox coverslip was coated with various concentration of the isocoumarin derivatives. The thermanox coverslip was placed on the chorioallantoic membranes at 4.5-day old chick embryo. After 2 days incubation at 37° C., 10% fat emulsion was injected into chorioallantois and observed blood vessel formation during an embryogenesis or development procedure. As a positive control, retinoic acid was used and non-treated coverslip for negative control.
Chorioallantoic membrane (CAM) assay was used to measure whether the two compounds obtained in Example 1 are effective to inhibit angiogenesis in vivo. Fertilized chick eggs were kept in a humidified incubator at 37° C. After 3 days incubation, about 2 ml of egg albumin were removed with hypodermic needle to allow CAM and yolk sac to drop away from the shell membrane. On day 3.5, the shell was punched out and removed to be a circular window and the shell membrane was removed. For testing of angiogenesis inhibition, a pieces of thermanox coverslip was coated with the isocoumarin derivatives dissolved in ethanol at concentration of 1, 5 and 10 μg/coverslip and the ethanol was evaporated. The thermanox coverslip were placed on the chorioallantoic membranes at 4.5-day old chick embryo. After 2 days incubation at 37° C., 1-2 ml of 10% fat emulsion was injected into chorioallantois and observed blood vessel formation during an embryogenesis or development procedure under a microscope. As a positive control, 1 μg/egg of retinoic acid was used and a negative control was non-treated. coverslip.

HUVEC = test: Cytotoxicity to HUVEC; assay type: cell-based, human; details: same concentrations as in the angiogenesis inhibition
[3] = Acute toxicity test with rat; details: in vivo, 300 mg/kg; for Death and clinical symptoms / Toxic signs in weight change, serologic test, serobiochemical test, corpse examination: po; for LD50: rat, SD-rats, single oral administration, read-out: lethal dose (LD50)
Experimental: Specific pathogen-free (SPF) SD-rats (six weeks old) were used for the test of acute toxicity. Suspensions of the compounds of formulae 2 and 3 in 0.5% methyl cellulose were orally administered once at a dose of 300 mg/kg/10 ml to the rats. After the administration, the animals were observed as to their death, clinical symptoms and weight change, and serological and serobiochemically tested. An autopsy was made over the rats with the naked eye to observe whether their abdominal and thoracic organs were damaged. […] The compounds tested caused no toxic changes rats over the rats to the dose of 300 mg/lkg and thus, found to be safe compounds with a lethal dose (LD50) of at least 300 mg/kg when being administered via an oral route.

[4] = Homo sapiens, length of capillary tubes vs control, read-out: Inhibitory activity (%) against tube formation

CC(O)c1coc(=O)c2c(O)cc(O)cc12 (centres unmarked) [6,8-dihydroxy-4-(1-hydroxyethyl)-isocoumarin]
Lowest concentration still inhibiting differentiation of HUVEC into capillary tubes [1]: 4 µg/mL
inhibition at 0.5 µg/mL [1, 4]: 0%
inhibition at 1 µg/mL [1, 4]: 0%
inhibition at 4 µg/mL ([1]; Homo sapiens, 4 μg/ml, length of capillary tubes vs control, read-out: Inhibitory activity (%) against tube formation): 60%
inhibition at 10 µg/mL ([1]; Homo sapiens, 10 μg/ml, length of capillary tubes vs control, read-out: Inhibitory activity (%) against tube formation): 100%
Inhibition rate (%) ([2]; 1 μg/egg): 27.3%
Inhibition rate (%) ([2]; 5 μg/egg): 66.7%
Inhibition rate (%) ([2]; 10 μg/egg): 83.3%
Inhibition rate (%) ([2]; 10 μg/egg, listed as 6,8-dihydroxy-4-(1-hydroxyetyl)-isocoumarin): 78.6%
Cytotoxicity to HUVEC (HUVEC): did not show cytotoxicity
Death and clinical symptoms [3]: Neither sudden death nor noticeable clinical symptoms were detected
Toxic signs in weight change, serologic test, serobiochemical test, corpse examination [3]: no toxic signs were observed
LD50 [3]: ≥ 300 mg/kg

CC(=O)c1coc(=O)c2c(O)cc(O)cc12 [6,8-dihydroxy-4-acetyl-isocoumarin]
Lowest concentration still inhibiting differentiation of HUVEC into capillary tubes [1]: 0.2 µg/mL
inhibition at 0.05 µg/mL ([1]; Homo sapiens, 0.05 μg/ml, length of capillary tubes vs control, read-out: Inhibitory activity (%) against tube formation): 0%
inhibition at 0.2 µg/mL ([1]; Homo sapiens, 0.2 μg/ml, length of capillary tubes vs control, read-out: Inhibitory activity (%) against tube formation): 50%
inhibition at 0.5 µg/mL [1, 4]: 85%
inhibition at 1 µg/mL [1, 4]: 100%
Inhibition rate (%) ([2]; 1 μg/egg): 50.0%
Inhibition rate (%) ([2]; 5 μg/egg): 83.3%
Inhibition rate (%) ([2]; 10 μg/egg): 93.3%
Cytotoxicity to HUVEC (HUVEC): no cytotoxicity; also recorded: did not show cytotoxicity
Death and clinical symptoms [3]: Neither sudden death nor noticeable clinical symptoms were detected
Toxic signs in weight change, serologic test, serobiochemical test, corpse examination [3]: no toxic signs were observed
LD50 [3]: ≥ 300 mg/kg

CC1=C(/C=C/C(C)=C/C=C/C(C)=C/C(=O)O)C(C)(C)CCC1 [retinoic acid, reference compound]
Inhibition rate (%) ([2]; 1 μg/egg): 79.2%
